Tested on: HLA-A*24:02 transgenic mouse
Experiment: Test 3: in vivo CTL induction, cocktail vaccine b, IFNγ ELISPOT
Details: FIG. 1; for CTL counts responsive to Peptide SEQ ID No. 2 on adding the compound to cocktail vaccine b: vs cocktail vaccine b alone, 100 ng Example 1 or 69 ng Reference example 12 per body, intradermal, twice
Method: Evaluation of In Vivo CTL Induction in HLA-A*24:02 Transgenic Mouse
The in vivo adjuvant activity of the compound of Example 1 and the compound of Reference example 12 was evaluated in the following procedure. To a cocktail vaccine comprising Compound of formula 4 prepared in Reference example 8 and Peptide SEQ ID No. 3 prepared in Reference example 3 with Montanide ISA 51 V (hereinafter, referred to as “cocktail vaccine b”) was added the compound prepared in Example 1 or the compound prepared in Reference example 12 respectively to prepare each vaccine. The vaccine was administered to a HLA-A*24:02 transgenic mouse, and the adjuvant activity of each vaccine was evaluated by the method of testing antigen-specific cytotoxic T-lymphocyte (CTL) induction.
The CYTWNQMNL (SEQ ID No. 2) in Compound of formula 4 corresponds to an antigen peptide derived from an HLA-A*24:02-restricted WT1 protein.
HLA-A*24:02 transgenic mouse (C57BL/6CrHLA-A2402/K^b) expresses a chimeric HLA of a human MHC (HLA-A*24:02) and a mouse MHC (H-2K^b). The mouse can induce CTLs with a peptide which can induce CTLs in HLA-A*24:02-positive human (Int J Cancer. 2002; 100: 565-70).
The character for inducing CTLs specific to the peptide (SEQ ID No. 2) by cocktail vaccine b was evaluated by measuring whether IFNγ can be produced upon stimulation of splenocytes from the mouse with the peptide (SEQ ID No. 2). In addition, the character for exerting in vivo adjuvant activity by the compound in Example 1 or the compound in Reference example 12 was evaluated by comparing the number of CTLs induced by cocktail vaccine b and the number of CTLs induced by the vaccine prepared by adding the compound prepared in Example 1 or the compound in Reference example 12 to cocktail vaccine b, and checking presence or absence of the increase on the number.
Specifically, Compound of formula 4 and Peptide SEQ ID No. 3 were dissolved in DMSO, and then diluted with water for injection to concentrations of Compound of formula 4 of 6 mg/ml and Peptide of SEQ ID No. 3 of 4.5 mg/ml. […]

| SMILES | increase of the CTL counts (Peptide SEQ ID No. 2) compared with Reference example 12 (added to cocktail vaccine b, 100 ng Example 1 vs 69 ng Reference example 12 per body) | CTL counts responsive to Peptide SEQ ID No. 2 on adding the compound to cocktail vaccine b |
| --- | --- | --- |
| CCCCCNc1nc(N)nc(C)c1Cc1ccc(CN(C)CCOCCOCCOCCOCCO)cc1OC [Example 1, 1-(4-{[2-amino-4-methyl-6-(pentylamino)pyrimidin-5-yl]methyl}-3-methoxyphenyl)-2-methyl-5,8,11,14-tetraoxa-2-azahexadecan-16-ol·trifluoroacetate] | more | increased |
| CCCCCNc1nc(N)nc(C)c1Cc1ccc(CNC)cc1OC [Reference example 12, 5-({2-methoxy-4-[(methylamino)methyl]phenyl}methyl)-6-methyl-N^4-pentylpyrimidine-2,4-diamine, reference compound] | – | increased |
